Experimental data: patent US10428115B2, “Dynorphin A analogs with bradykinin receptors specificity for modulation of neuropathic pain” (THE ARIZONA BOARD OF REGENTS ON BEHALF OF THE UNIVERSITY OF …, priority 2013, dated 2019)
Where two headings read alike, the source gives them in different places. Square brackets hold non-standard residues; d marks the D form. Ends that are not written are not given here. Nle = CCCC[C@H](N)C(=O)O

What was measured:
[1] = molecular target: rat brain bradykinin receptors; assay: Radioligand competition binding against [3H]DALKD in rat brain membranes; conditions: for IC50: [3H]DALKD
Description: Binding affinities of dynorphin A analogs at the bradykinin receptors were determined by radioligand competition analysis using [^3H]DALKD or [^3H]BK in rat brain membranes or transfected HEK 293 cells expressing the human B2R. Crude rat brain membranes were pelleted and resuspended in 50 mM Tris buffer containing 50 μg/mL bacitracin, 10 μM captopril, 100 μM PMSF, and 5 mg/mL BSA. 10 concentrations of a test compound were each incubated with 50 μg of membranes and [^3H]DALKD (1 nM, 76.0 Ci/mmol) or [^3H]BK (1 nM, 85.4 Ci/mmol) at 25° C. for 2 h. Non-specific binding was defined by that in the presence of […] KD in all assays. Reactions were terminated by rapid filtration through Whatman GF/B filters presoaked in 1% polyethyleneimine, followed with four washes of 2 mL cold saline. Radioactivity was determined by liquid scintillation counting in a Beckman LS5000 TD. Data were analyzed by non-linear least squares analysis using GraphPad Prism (Version 4). […]

naive rats = assay: Motor function and paralysis after intrathecal injection (hindlimb tests, tail-flick) in naive rats; format: in vivo, rat; conditions: for motor function after intrathecal (spinal) injection: naive rats
Description: Intrathecal (i.th.) catheterization. While under ketamine/xylazine (80/12 mg/kg, i.p.) anesthesia, some groups of rats were implanted with i.th. catheters (polyethylene 10, 7.8 cm) through atlanto-occipital membrane extended to the level of the lumbar spinal cord for drug administration. Animals were allowed to recover for 7 days. Drugs were injected in a volume of 5 μl, followed by a 1 μl air bubble and a 9 μl saline flush.
Tail-flick test. The hot-water tail-flick test was performed by placing the distal third of the tail in a water bath maintained at 52° C. The latency until tail withdrawal from the bath was determined and compared among the treatments. A 10 sec cutoff was used to avoid tissue damage. Data were converted to percentage of antinociception by the following formula: (response latency−baseline latency)/(cutoff−baseline latency)*100.

SNL rats = assay: Reversal of thermal hyperalgesia and tactile hypersensitivity in SNL rats (neuropathic pain model); format: in vivo, rat
[2] = tested on: bradykinin-induced plasma extravasation; assay: Bradykinin-induced rat paw oedema and plasma extravasation, intraplantar injection; format: in vivo
Description: Experiments were conducted on non-fasted male Sprague-Dawley rats (250-300 g) kept in a room controlled for temperature (22±2° C.) and illumination (12 h on and 12 h off). Under ketamine/xylazine (80/12 mg/kg, i.p.) anesthesia animals received an injection of Evans Blue (30 mg/mL/kg, i.v.) via tail vein and baseline paw volume for both hindpaws was measured by use of a plethysmometer (Ugo Basile). Animals then received 0.1 mL i.pl. injections in one hindpaw of normal saline (0.9% NaCl) containing BK either alone or mixed with HOE140 or LYS1044 (10 nmol/paw each). The contralateral paw received 0.1 mL saline and was used as a control. Oedema was measured at several 30, 60 and 90 min post i.pl. injections and expressed in mL as the difference (mL) between the test and control paws. Three hours post BK injections, animals were sacrificed and patches (10×5 mm) of the dorsal skin from both hindpaws were collected. The skin patches were then incubated separately in Eppendorf tubes containing 1.8 mL formamide at 60° C. water bath for 24 h to extract the dye. The tissue extraction was then centrifuged at 15000 rpm for 15 min and the supernatant was pipetted to a 96 well plate as triplicates and the absorbance was determined at 620 nm. The difference of the mean absorbance between the two hindpaws of each rat was used to compare the degree of plasma extravasation in different treatment groups.

[3] = Stability in plasma (t1/2)
guinea pig ileum = conditions: compared with the enkephalins and β-endorphin; cited from earlier work
[4] = Table 1, brain bradykinin receptors, pH 6.8, read-out: IC50 (nM) at pH 6.8, n ≥ 2
[5] = Table 1, brain bradykinin receptors, pH 7.4, read-out: IC50 (nM) at pH 7.4, n ≥ 2
[6] = Table 6, rat brain bradykinin receptors, pH 6.8, read-out: IC50 (nM), cell marked at pH 6.8
[7] = Table 6, rat brain bradykinin receptors, pH 7.4, read-out: IC50 (nM) at pH 7.4, N > 2
[8] = Table 4, rat brain bradykinin receptors, pH 7.4, read-out: IC50 (nM) at pH 7.4, N > 2
[9] = Table 3, rat brain bradykinin receptors, pH 7.4, read-out: IC50 (nM) at pH 7.4, N > 2
[10] = Table 5, rat brain bradykinin receptors, pH 6.8, read-out: IC50 (nM), cell marked at pH 6.8
[11] = Table 2, rat brain bradykinin receptors, pH 7.4, read-out: IC50 (nM) at pH 7.4, n > 2
[12] = Table 5, rat brain bradykinin receptors, pH 7.4, read-out: IC50 (nM) at pH 7.4, N > 2

For CC[C@H](C)[C@H](NC(=O)[C@H](CCCNC(=N)N)NC(=O)[C@H](CCCNC(=N)N)NC(=O)[C@H](CC(C)C)NC(=O)[C@H](Cc1ccccc1)NC(=O)CNC(=O)CN)C(=O)N[C@@H](CCCNC(=N)N)C(=O)N1CCC[C@H]1C(=O)N[C@@H](CCCCN)C(=O)N[C@@H](CC(C)C)C(=O)N[C@@H](CCCCN)C(=O)O [Dyn (2-13), Gly-Gly-Phe-Leu-Arg-Arg-Ile-Arg-Pro-Lys-Leu-Lys, reference compound], the IC50 [1, 4] was 21 nM, the IC50 [1, 5] was 170 nM and the “motor function after intrathecal (spinal) injection” value (naive rats) was “produces disturbances of motor function and antinociception”.
With CC[C@H](C)[C@H](NC(=O)[C@H](CCCNC(=N)N)NC(=O)[C@H](CC(C)C)NC(=O)[C@@H](N)Cc1ccccc1)C(=O)N[C@@H](CCCNC(=N)N)C(=O)N1CCC[C@H]1C(=O)N[C@@H](CCCCN)C(=O)O [LYS1044, Phe-Leu-Arg-Ile-Arg-Pro-Lys] the anti-allodynic effect (SNL rats; tactile hypersensitivity) was “anti-allodynic effects”, the anti-hyperalgesic effect (SNL rats; thermal hyperalgesia) was “dose dependent anti-hyperalgesic” and the “motor function after intrathecal (spinal) injection” value (naive rats) was “does not produce motor impairment”. The “prevention of dynorphin A-(2-13)-induced paralysis” value (naive rats; spinal administration) was “prevents dynorphin A-(2-13)-induced paralysis”, the “changes in paw volume” value [2] was “does not show changes in paw volume” and the “prevention of bradykinin-induced plasma extravasation” value [2] was “does not prevent bradykinin-induced plasma extravasation”. The “toxic effect on rotarod experiment” value (Rotarod experiment) was “no toxic effect” and the half-life [3] was < 3 h.
For CC[C@H](C)[C@H](NC(=O)[C@H](CCCNC(=N)N)NC(=O)[C@@H](CC(C)C)NC(=O)[C@@H](N)Cc1ccccc1)C(=O)N[C@@H](CCCNC(=N)N)C(=O)N1CCC[C@H]1C(=O)N[C@@H](CCCCN)C(=O)O [SH145], the IC50 [1, 6] was 99 nM, the “binding affinity at bradykinin receptors (in words)” value ([1]; rat brain bradykinin receptors) was “retained the same high binding affinity as LYS1044” and the half-life [3] was > 24 h.
“AN101: modified dynorphin A analog; Table 6 prints only the change: Nle at position 8 (FLR[Nle]RPK)” gave an IC50 [1, 7] of 140 nM.
With “AN108-1: dynorphin A analog; Table 4 prints only changes: Ac- at 4, Nle at 5, Nle at 8, Arg at 11 (Ac-F[Nle]R[Nle]RPR)” the IC50 [1, 8] was 140 nM.
“AN108-4: dynorphin A analog; Table 4 prints only changes: Ac-DPhe at 4, Nle at 5, Nle at 8, Arg at 11 (Ac-[dF][Nle]R[Nle]RPR)” gave an IC50 [1, 8] of 54 nM.
With “AN109: dynorphin A analog; Table 4 prints only changes: Ac- in Gly^3 column, Nle at 5, Nle at 8, Arg at 11 (Ac-GF[Nle]R[Nle]RPR)” the IC50 [1, 8] was 210 nM.
For “Ac-Phe-Leu-Arg-Ile-Arg-Pro-DLys (Ac-FLRIRP[dK]) [AP111]”, the IC50 [1, 9] was 550 nM.
FIRIRPR [AN105] gave an IC50 [1, 7] of 110 nM.
“FLRIRPK [AP107-1, Ac-Phe-Leu-Arg-Ile-Arg-Pro-Lys]” gave an IC50 [1, 9] of 120 nM and an IC50 [1, 8] of 120 nM.
FLRIRPR [AN104] gave an IC50 [1, 8] of 210 nM and an IC50 [1, 7] of 210 nM.
For FLRLRPR [AN106], the IC50 [1, 7] was 100 nM.
“FLRRIRPK [Analogs S1F, Phe-Leu-Arg-Arg-Ile-Arg-Pro-Lys-NH2]” gave an IC50 [1, 9] of 6800 nM.
With “FLRRIRPK [LYS1026, Phe-Leu-Arg-Arg-Ile-Arg-Pro-Lys]” the IC50 [1, 4] was 69 nM, the IC50 [1, 5] was 140 nM and the IC50 [1, 9] was 140 nM.
With “FLRRIRRPK [SH114, Phe-Leu-Arg-Arg-Ile-Arg-Arg-Pro-Lys]” the IC50 [1, 10] was 74 nM.
With GFLR [LYS1031, Gly-Phe-Leu-Arg-NH2] the IC50 [1, 9] was > 10000 nM.
With GFLR [LYS1035, Gly-Phe-Leu-Arg] the IC50 [1, 11] was 950 nM and the IC50 [1, 9] was 950 nM.
In the case of “GFLRIR [Analogs J101, Gly-Phe-Leu-Arg-Ile-Arg]”, the IC50 [1, 12] is reported as 620 nM.
Compound “GFLRIRPK [LYS1045, Gly-Phe-Leu-Arg-Ile-Arg-Pro-Lys]” has an IC50 [1, 12] of 130 nM.
“GFLRIRPKLK [LYS1042, Gly-Phe-Leu-Arg-Ile-Arg-Pro-Lys-Leu-Lys]” gave an IC50 [1, 4] of 26 nM, an IC50 [1, 5] of 41 nM and an IC50 [1, 12] of 43 nM.
In the case of GFLRR [BP006D, Gly-Phe-Leu-Arg-Arg], the IC50 [1, 11] is reported as 8100 nM.
For “GFLRRI [LYS1004, Gly-Phe-Leu-Arg-Arg-Ile]”, the IC50 [1, 11] was 2300 nM.
With “GFLRRIR [Analogs J104, Gly-Phe-Leu-Arg-Arg-Ile-Arg]” the IC50 [1, 11] was 780 nM.
Work on “GFLRRIRP [BP1004D, Gly-Phe-Leu-Arg-Arg-Ile-Arg-Pro]” yielded an IC50 [1, 11] of 1200 nM.
With “GFLRRIRPK [LYS1027, Gly-Phe-Leu-Arg-Arg-Ile-Arg-Pro-Lys]” the IC50 [1, 11] was 130 nM.
With “GFLRRIRPKL [LYS1024, Gly-Phe-Leu-Arg-Arg-Ile-Arg-Pro-Lys-Leu]” the IC50 [1, 11] was 280 nM.
For “GFLRRIRPKLK [LYS1021, Gly-Phe-Leu-Arg-Arg-Ile-Arg-Pro-Lys-Leu-Lys]”, the IC50 [1, 11] was 320 nM.
“GGFLRIRPKLK [CYF103, Gly-Gly-Phe-Leu-Arg-Ile-Arg-Pro-Lys-Leu-Lys]” gave an IC50 [1, 4] of 41 nM and an IC50 [1, 10] of 41 nM.
In the case of IRPKL [RK107, Ile-Arg-Pro-Lys-Leu-NH2], the IC50 [1, 9] is reported as 8700 nM.
“IRPKLK [LYS1039, Ile-Arg-Pro-Lys-Leu-Lys]” showed an IC50 [1, 4] of 63 nM and an IC50 [1, 5] of 81 nM.
Work on “LRIRPK [LYS1043, Leu-Arg-Ile-Arg-Pro-Lys]” yielded an IC50 [1, 12] of 180 nM.
In the case of “LRIRPKLK [LYS1040, Leu-Arg-Ile-Arg-Pro-Lys-Leu-Lys]”, the IC50 [1, 4] is reported as 30 nM, the IC50 [1, 5] is reported as 68 nM and the IC50 [1, 12] is reported as 68 nM.
“LRRIRPKL [LYS1022, Leu-Arg-Arg-Ile-Arg-Pro-Lys-Leu]” showed an IC50 [1, 9] of 7100 nM.
For “LYS1107: modified dynorphin A analog; Table 6 prints only the change: Nle at position 12 (PK[Nle]K; ends and bridges not checked; also: modified dynorphin A analog, full sequence beyond listed fragment not given here)”, the IC50 [1, 7] was 72 nM.
Work on PKLK [LYS1038, Pro-Lys-Leu-Lys] yielded an IC50 [1, 4] of 210 nM and an IC50 [1, 5] of 120 nM.
With “RIRPKL [RK108, Arg-Ile-Arg-Pro-Lys-Leu-NH2]” the IC50 [1, 9] was 6300 nM.
In the case of “RIRPKLK [LYS1114, Arg-Ile-Arg-Pro-Lys-Leu-Lys]”, the IC50 [1, 4] is reported as 72 nM.
With RPKLK [LYS1113, Arg-Pro-Lys-Leu-Lys] the IC50 [1, 4] was 58 nM.
For “SH124: modified dynorphin A analog; Table 6 prints only changes: Nle at 8, Lys at 9, Nle at 12 ([Nle]KPK[Nle]K; ends and bridges not checked; also: modified dynorphin A analog, full sequence beyond listed fragment not given here)”, the IC50 [1, 6] was 78 nM.
For “Tyr-Gly-Gly-Phe-Leu-Arg-Arg-Ile-Arg-Pro-Lys-Leu-Lys (YGGFLRRIRPKLK; listed as Homo sapiens) [dynorphin A-(1-13)]”, the “activity in guinea pig ileum test” value (guinea pig ileum) is listed as “substantially more active than the enkephalins and β-endorphin”.
WLRIRPK [AN103] showed an IC50 [1, 7] of 190 nM.
